The numbers were not newly measured in Sander's compilation of Henry's law constants, which cites them from elsewhere.

The data set is described as follows: Henry solubility constant Hcp at 298.15 K (mol/(m3 Pa)). The settings on record: cited value.
The mark [1] stands for this setting: reference: Burkholder et al. (2015).
The mark [2] stands for this setting: reference: Burkholder et al. (2019).
Where [3] appears, read: reference: Barcelo and Hennion (1997).
Setting [4] is: reference: Sander et al. (2011).
The mark [5] stands for this setting: reference: Fogg and Sangster (2003).
Where [6] appears, read: reference: Sander et al. (2006).
Where [7] appears, read: reference: Harrison et al. (1993).

“And” between values parts separate entries of the source, which are not always exact repeats. Equal entries are not always repeated.

With `C#CCCCC` [1-hexyne], under “reference: Brockbank (2013)”, the “Henry solubility constant Hcp” value is 0.00026.
With `CC(C)S` [2-propanethiol], for the setting “reference: Brockbank (2013)”, the “Henry solubility constant Hcp” value is 0.0013.
With `Cc1ccc(N)c(C)c1` [2,4-dimethylbenzenamine], under “reference: Brockbank (2013)”, the “Henry solubility constant Hcp” value was 2.8.
`CCC(C)C=O` (stereo not given) [2-methylbutanal]: the “Henry solubility constant Hcp” value (reference: Brockbank (2013)) was 0.025.
On to `CCCCCOC(C)=O` [pentyl ethanoate], for which the “Henry solubility constant Hcp” value (reference: Brockbank (2013)) is 0.025 and the “Henry solubility constant Hcp” value (reference: Meynier et al. (2003)) was 0.025.
For the compound `CC(C)CC(C)C` [2,4-dimethylpentane], the “Henry solubility constant Hcp” value (reference: Brockbank (2013)) was 2.9e-06.
On to `OCC(Cl)Cl` [2,2-dichloroethanol], for which the “Henry solubility constant Hcp” value under setting [1] was 0.37 and the “Henry solubility constant Hcp” value under setting [2] is 0.37.
On to `O=C1c2ccccc2C(=O)N1SC(Cl)(Cl)Cl` [folpet], for which the “Henry solubility constant Hcp” value under setting [3] is 0.026.
On to `OBr` [hypobromous acid], for which the “Henry solubility constant Hcp” value reads like this: under setting [1], greater than 13; under setting [2], greater than 13.
As to `CC(C)CCO` [3-methyl-1-butanol], for the setting “reference: Brockbank (2013)”, the “Henry solubility constant Hcp” value is 0.82.
Regarding `CC(C)I` [2-iodopropane], the “Henry solubility constant Hcp” value (reference: Brockbank (2013)) was 0.00085.
On to `Clc1cc(Cl)c(Cl)c(Cl)c1` [1,2,3,5-tetrachlorobenzene], for which the “Henry solubility constant Hcp” value (reference: Meylan and Howard (1991)) was 0.0063.
In the case of `CCCCCCCCCCO` [1-decanol], the “Henry solubility constant Hcp” value (reference: Brockbank (2013)) is 0.2.
Regarding `Cc1ccc(Br)cc1` [1-bromo-4-methylbenzene], the “Henry solubility constant Hcp” value (reference: Brockbank (2013)) is 0.0036.
For the compound `C=CC(C)=O` [3-buten-2-one], the “Henry solubility constant Hcp” value reads like this: under setting [1], 0.4; under setting [2], 0.4.
Turning to `CCOC(=O)COc1cc(-c2nn(C)c(OC(F)F)c2Cl)c(F)cc1Cl` [pyraflufen-ethyl], for the setting “reference: MacBean (2012b)”, the “Henry solubility constant Hcp” value was 12000.
Turning to `CCCI` [1-iodopropane], for the setting “reference: Brockbank (2013)”, the “Henry solubility constant Hcp” value was 0.0011.
For `COC(=O)c1ccccc1S(=O)(=O)NC(=O)N(C)c1nc(C)nc(OC)n1` [tribenuron-methyl], the “Henry solubility constant Hcp” value (reference: MacBean (2012b)) is 9.7e+07.
Take `Cc1cccc(N)c1` [3-methylbenzenamine]: the “Henry solubility constant Hcp” value (reference: Brockbank (2013)) is 5.6.
On to `CC(=O)OCC(F)(F)F` [2,2,2-trifluoroethyl ethanoate], for which the “Henry solubility constant Hcp” value was 0.0055 under setting [1], 0.0055 under setting [2] and 0.0055 under setting [4].
In the case of `CCCCCCCCCCCCCCCCO` [1-hexadecanol], for the setting “reference: Abraham (1984)”, the “Henry solubility constant Hcp” value is 0.35.
As to `CC(Cl)(Cl)Cl` [1,1,1-trichloroethane], the “Henry solubility constant Hcp” value runs as follows: (reference: Barr and Newsham (1987)) 0.00058; (reference: Brockbank (2013)) 0.00058; under setting [1], 0.0006; under setting [2], 0.0006; under setting [5], 0.00062; (reference: Goldstein (1982)) 0.0022.
Regarding `CC(C)C(C)O` (stereo not given) [3-methyl-2-butanol], the “Henry solubility constant Hcp” value (reference: Brockbank (2013)) is 0.51.
Take `CC(=O)c1ccccc1` [1-phenylethanone]: where the note is “reference: Brockbank (2013)”, the “Henry solubility constant Hcp” value was 1.1.
With `[Ar]` [argon], the “Henry solubility constant Hcp” value (reference: Clever (1980)) was 1.4e-05.
Regarding `c1ccc2cc3cc4ccccc4cc3cc2c1` [naphthacene], the “Henry solubility constant Hcp” value (reference: Mackay et al. (1992b)) is 250.
Take `CC(O)C(C)O` (stereo not given) [2,3-butanediol]: the “Henry solubility constant Hcp” value runs as follows: under setting [1], 1100; under setting [2], 1100.
`CCCBr` [1-bromopropane]: for the setting “reference: Brockbank (2013)”, the “Henry solubility constant Hcp” value is 0.0011.
In the case of `Cc1ccc(C)c(C)c1` [1,2,4-trimethylbenzene], the “Henry solubility constant Hcp” value is, setting by setting: (reference: Brockbank (2013)) 0.0016; under setting [5], 0.0017.
`CC(=O)OC1CCCCC1` [cyclohexyl ethanoate]: the “Henry solubility constant Hcp” value (reference: Brockbank (2013)) was 0.1.
As for `CCCCOCCOC(C)=O` [2-butoxyethyl ethanoate], the “Henry solubility constant Hcp” value (reference: Brockbank (2013)) was 1.8.
As for `CCCNCCC` [dipropylamine], the “Henry solubility constant Hcp” value (reference: Brockbank (2013)) was 0.21, the “Henry solubility constant Hcp” value under setting [1] was 0.2 and the “Henry solubility constant Hcp” value under setting [2] was 0.2.
As for `OCOO` [hydroxymethyl hydroperoxide], the “Henry solubility constant Hcp” value was 17000 under setting [1], 17000 under setting [2], 17000 under setting [6] and 17000 under setting [4].
For the compound `COC(C)=O` [methyl ethanoate], the “Henry solubility constant Hcp” value (reference: Brockbank (2013)) is 0.085 and the “Henry solubility constant Hcp” value under setting [2] was 0.085.
`Cc1ccc(Cl)cc1Cl` [2,4-dichloro-1-methylbenzene]: the “Henry solubility constant Hcp” value (reference: Brockbank (2013)) was 0.0027.
Consider `CCCC1COC(Cn2cncn2)(c2ccc(Cl)cc2Cl)O1` (stereo not given) [propiconazole], for which, under setting [3], the “Henry solubility constant Hcp” value was 24.
With `CCCC(C)CCC` [4-methylheptane], the “Henry solubility constant Hcp” value (reference: Brockbank (2013)) is 2.7e-06.
Regarding `ClCCOCCCl` [1,5-dichloro-3-oxapentane], the “Henry solubility constant Hcp” value was 0.48 (reference: Brockbank (2013)); 0.46 and 0.47 (reference: Goldstein (1982)); 0.37 under setting [7].
With `ClC(Cl)(Cl)Cl` [tetrachloromethane], the “Henry solubility constant Hcp” value is, setting by setting: (reference: Brockbank (2013)) 0.00035; under setting [1], 0.00036; under setting [2], 0.00036; (reference: Dilling (1977)) 0.00046; (reference: Goldstein (1982)) 0.00033; under setting [7], 0.00038 and 0.00021. Also, the “Henry solubility constant Hcp” value (reference: Liss and Slater (1974)) is 0.00037; the “Henry solubility constant Hcp” value under setting [6] was 0.00034; the “Henry solubility constant Hcp” value under setting [4] is 0.00034.
In the case of `COC(=O)c1ccccc1` [methyl benzoate], the “Henry solubility constant Hcp” value (reference: Brockbank (2013)) is 0.29.
As to `Cc1ccc(NC(=O)N(C)C)cc1Cl` [chlortoluron], under setting [3], the “Henry solubility constant Hcp” value was 190.
Regarding `c1ccc2c(c1)cc1ccc3cccc4ccc2c1c34` [benzo[a]pyrene], the “Henry solubility constant Hcp” value by setting is: (reference: Brockbank (2013)) 4.5; (reference: Goldstein (1982)) 0.0016.
As to `CCC(C)Cl` (stereo not given) [2-chlorobutane], for the setting “reference: Brockbank (2013)”, the “Henry solubility constant Hcp” value is 0.00041.
Regarding `CCCCCCCCCC=O` [decanal], the “Henry solubility constant Hcp” value (reference: Brockbank (2013)) is 0.0063.
`ClC1C(Cl)C(Cl)C(Cl)C(Cl)C1Cl` (stereo not given) [γ-1,2,3,4,5,6-hexachlorocyclohexane]: the “Henry solubility constant Hcp” value was 31 (reference: McCarty (1980)); 3.7 and 3.3 (reference: Xiao et al. (2004)).
Consider `FC(F)(F)C(F)(F)C(F)(F)C(F)(F)C(F)(F)C(F)(F)F` [tetradecafluorohexane], for which the “Henry solubility constant Hcp” value (reference: Brockbank (2013)) was 9.3e-09.
Turning to `COCCOC` [1,2-dimethoxyethane], the “Henry solubility constant Hcp” value (reference: Brockbank (2013)) is 1.3.
With `CC(=O)C(F)(F)F` [1,1,1-trifluoro-2-propanone], the “Henry solubility constant Hcp” value under setting [1] is 1.4, the “Henry solubility constant Hcp” value under setting [2] is 1.4 and the “Henry solubility constant Hcp” value under setting [4] is 1.4.
Turning to `CCCCCCCC#N` [octanenitrile], the “Henry solubility constant Hcp” value (reference: Plyasunov et al. (2006)) is 0.057.
Regarding `c1ccccc1` [benzene], the “Henry solubility constant Hcp” value is 0.0018 (reference: Brockbank (2013)) and 0.0018 (reference: Goldstein (1982)).
With `CON(C)C(=O)Nc1ccc(Cl)c(Cl)c1` [linuron], the “Henry solubility constant Hcp” value under setting [3] was 1.8 and the “Henry solubility constant Hcp” value (reference: MacBean (2012b)) is 5000.
`CCCCOC(=O)c1ccccc1C(=O)OCCCC` [dibutyl phthalate]: the “Henry solubility constant Hcp” value (reference: Brockbank (2013)) is 11 and the “Henry solubility constant Hcp” value (reference: McCarty (1980)) was 0.16.
Regarding `C=CCCCCC` [1-heptene], where the note is “reference: Brockbank (2013)”, the “Henry solubility constant Hcp” value was 2e-05.
Turning to `Nc1ccc([N+](=O)[O-])cc1` [4-nitrobenzenamine], for the setting “reference: Brockbank (2013)”, the “Henry solubility constant Hcp” value is 8700.
